We go through three compounds from US10259833B2, “Natural lipids containing non-oxidizable fatty acids” (Bergen Teknologioverføring AS, priority 2013, dated 2019).

A short description of data set [1]: degradation time in vivo of ω-oxidation-blocked fatty acid analogue. The note with it: triple bond at the methyl end blocks ω-oxidation. An excerpt: ω-oxidation is believed to be the main pathway for degradation of the fatty acid analogues as described with a block in the X position. Fatty acid analogues in which R′ was changed by introducing a triple bond at the methyl end of the fatty acid analogue block ω-oxidation. […] Thus, this modification finds use in embodiments of the technology to potentiate the effects of the β-oxidizable fa acid analogues by further slowing down their breakdown.

In another data set the test system is acyl-CoA oxidase. The note with it: substance alone; cited from earlier work.
For data set [2] the following is noted: TTA alone; cited from earlier work.
For data set [3] the following is noted: rats, 12 weeks; cited from earlier work.
For data set [4] the following is noted: moderate doses, within days of treatment; cited from earlier work.
The target in the next data set is T1, PPARα (Homo sapiens, UniProt Q07869).
T1 sequence (Q07869 1-468): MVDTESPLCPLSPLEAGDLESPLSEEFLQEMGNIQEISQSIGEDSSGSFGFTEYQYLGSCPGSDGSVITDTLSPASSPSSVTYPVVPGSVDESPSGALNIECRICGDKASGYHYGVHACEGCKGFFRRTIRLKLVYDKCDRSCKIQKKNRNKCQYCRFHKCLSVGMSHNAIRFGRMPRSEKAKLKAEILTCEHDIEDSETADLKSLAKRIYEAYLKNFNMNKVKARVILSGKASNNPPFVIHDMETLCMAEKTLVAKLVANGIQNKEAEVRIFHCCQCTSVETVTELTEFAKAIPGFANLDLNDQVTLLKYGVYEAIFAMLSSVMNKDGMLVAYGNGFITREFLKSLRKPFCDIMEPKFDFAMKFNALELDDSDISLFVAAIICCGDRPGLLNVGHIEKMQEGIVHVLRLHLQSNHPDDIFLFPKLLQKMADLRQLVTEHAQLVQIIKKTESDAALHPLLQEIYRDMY
The note with it: cited from earlier work.

The next data set concerns the target T2, PPARβ (Homo sapiens, UniProt Q03181).
T2 sequence (Q03181 1-441): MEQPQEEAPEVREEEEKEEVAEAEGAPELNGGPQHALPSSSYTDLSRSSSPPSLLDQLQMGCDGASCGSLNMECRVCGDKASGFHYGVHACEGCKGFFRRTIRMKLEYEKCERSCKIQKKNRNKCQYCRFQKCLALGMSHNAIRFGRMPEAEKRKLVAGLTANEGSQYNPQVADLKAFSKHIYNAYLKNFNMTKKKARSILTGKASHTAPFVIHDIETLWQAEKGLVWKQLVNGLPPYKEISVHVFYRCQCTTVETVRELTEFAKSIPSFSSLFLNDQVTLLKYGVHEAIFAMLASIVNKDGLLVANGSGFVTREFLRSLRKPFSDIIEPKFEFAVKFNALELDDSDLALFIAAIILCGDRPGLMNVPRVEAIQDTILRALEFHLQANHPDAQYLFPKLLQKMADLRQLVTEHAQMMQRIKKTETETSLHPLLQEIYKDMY
The note with it: cited from earlier work.

Another data set addresses T3, PPARγ (Homo sapiens, UniProt P37231).
T3 sequence (P37231 1-505): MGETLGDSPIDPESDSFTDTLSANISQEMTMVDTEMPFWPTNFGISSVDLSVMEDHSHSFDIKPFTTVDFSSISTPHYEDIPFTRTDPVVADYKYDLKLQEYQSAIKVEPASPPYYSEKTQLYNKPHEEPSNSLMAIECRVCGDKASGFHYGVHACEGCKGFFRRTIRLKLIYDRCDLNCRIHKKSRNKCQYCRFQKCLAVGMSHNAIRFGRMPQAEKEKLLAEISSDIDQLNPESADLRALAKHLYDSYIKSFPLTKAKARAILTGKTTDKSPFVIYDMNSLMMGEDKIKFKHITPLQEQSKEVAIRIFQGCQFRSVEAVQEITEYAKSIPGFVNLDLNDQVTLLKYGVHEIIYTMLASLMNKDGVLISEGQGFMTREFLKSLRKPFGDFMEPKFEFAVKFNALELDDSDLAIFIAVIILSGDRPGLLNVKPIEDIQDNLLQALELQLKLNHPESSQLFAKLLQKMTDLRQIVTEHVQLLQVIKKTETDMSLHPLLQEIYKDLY
The note with it: cited from earlier work.

Another data set relates to cancer cell lines. The note with it: many cancer cell lines; cited from earlier work.
The next data set has as its system interleukin-2. The conditions noted are these: cited from earlier work.
Data set [5] has as its system peripheral mononuclear cells. The note with it: cited from earlier work.
For data set [6], the system named is mitochondrial β-oxidation in the liver. The note with it: sulfur in 3, 5 or 7 position relative to carboxyl end; cited from earlier work.

`CC#CCCCCCCCCCCCSCC` [3-thia-15-heptadecyne]: the “degradation time in vivo” value in data set [1] is reported as “substantially increased degradation time”.
For the compound `CCCCCCCCCCCCCCSCC(=O)O` [TTA, tetradecylthioacetic acid], the “effect on acyl-CoA oxidase activity” value with acyl-CoA oxidase is “large increase”. Also, the “effect on plasma triacylglycerol level” value in data set [2] is “reduces plasma triacylglycerol level”. Further, in data set [3], the “hepatic and plasma content of monounsaturated fatty acids (mainly oleic acid)” value was “nearly doubled”; the “polyunsaturated fatty acids (mainly linoleic acid and DHA)” value is recorded as “decreased”. Also, the “plasma cholesterol and triacylglycerol levels” value in data set [4] is “decreases”. Moreover, the PPARα ligand entry at PPARα was “potent ligands”. Further, the PPARβ activation entry at PPARβ is recorded as “activate”. Besides, on PPARγ, the PPARγ activation entry is listed as “activate”. Also, the “proliferation of cancer cell lines” value in the data set on cancer cell lines was “reduce proliferation”. The “release of interleukin-2” value in the data set with interleukin-2 is recorded as “depressing the release”. Besides, the “PHA stimulated proliferation of peripheral mononuclear cells” value in data set [5] is on record as “suppressing”.
In the case of `CCCCCCCCCCCCCCCC(=O)O` [palmitic acid], the “mitochondrial β-oxidation activity” value in data set [6] is given as 0.47.
